In ChEMBL document CHEMBL1158948, “[Isolation and synthesis of espintanol, a new antiparasitic monoterpene]” (J Nat Prod, 1991):
In brackets after ≈: the same amount, converted by molar mass.

Key:
Leishmania chagasi [1] = assay: Antileishmanial activity against Leishmania donovani chagasi after 48 hrs; assay type: functional
Trypanosoma cruzi [2] = assay: Antitrypanosomal activity against Trypanosoma cruzi C8CL1 after 48 hrs; assay type: functional
Leishmania amazonensis [3] = assay: Antileishmanial activity against Leishmania mexicana amazonensis after 48 hrs; assay type: functional
Trypanosoma cruzi [4] = assay: Antitrypanosomal activity against Trypanosoma cruzi 27R27CL1 after 48 hrs; assay type: functional
Trypanosoma cruzi [5] = assay: Antitrypanosomal activity against Trypanosoma cruzi Tulahuen after 48 hrs; assay type: functional
Leishmania braziliensis [6] = assay: Antileishmanial activity against Leishmania (Viannia) braziliensis after 48 hrs; assay type: functional
Trypanosoma cruzi [7] = assay: Antitrypanosomal activity against Trypanosoma cruzi Z2 after 48 hrs; assay type: functional
Trypanosoma cruzi [8] = assay: Antitrypanosomal activity against Trypanosoma cruzi MIL4CL10 after 48 hrs; assay type: functional
Trypanosoma cruzi [9] = assay: Antitrypanosomal activity against Trypanosoma cruzi 13379 CL5 after 48 hrs; assay type: functional
Trypanosoma cruzi [10] = assay: Antitrypanosomal activity against Trypanosoma cruzi 31R16CL1 after 48 hrs; assay type: functional
Trypanosoma cruzi [11] = assay: Antitrypanosomal activity against Trypanosoma cruzi TeCL2 after 48 hrs; assay type: functional
Trypanosoma cruzi [12] = assay: Antitrypanosomal activity against Trypanosoma cruzi 13379 CL8 after 48 hrs; assay type: functional
Trypanosoma cruzi [13] = assay: Antitrypanosomal activity against Trypanosoma cruzi 9280CL1 after 48 hrs; assay type: functional
Trypanosoma cruzi [14] = assay: Antitrypanosomal activity against Trypanosoma cruzi M6241CL6 after 48 hrs; assay type: functional
Trypanosoma cruzi [15] = assay: Antitrypanosomal activity against Trypanosoma cruzi Z2CL4 after 48 hrs; assay type: functional
Trypanosoma cruzi [16] = assay: Antitrypanosomal activity against Trypanosoma cruzi Z1 after 48 hrs; assay type: functional
Trypanosoma cruzi [17] = assay: Antitrypanosomal activity against Trypanosoma cruzi A99CL7 after 48 hrs; assay type: functional
Trypanosoma cruzi [18] = assay: Antitrypanosomal activity against Trypanosoma cruzi A98CL5 after 48 hrs; assay type: functional
Trypanosoma cruzi [19] = assay: Antitrypanosomal activity against Trypanosoma cruzi Y after 48 hrs; assay type: functional
Trypanosoma cruzi [20] = assay: Antitrypanosomal activity against Trypanosoma cruzi C8 CL1 after 48 hrs; assay type: functional
Trypanosoma cruzi [21] = assay: Antitrypanosomal activity against Trypanosoma cruzi R107 after 48 hrs; assay type: functional
Trypanosoma cruzi [22] = assay: Antitrypanosomal activity against Trypanosoma cruzi CL after 48 hrs; assay type: functional
Trypanosoma cruzi [23] = assay: Antitrypanosomal activity against Trypanosoma cruzi 13379 CL6 after 48 hrs; assay type: functional
Trypanosoma cruzi [24] = assay: Antitrypanosomal activity against Trypanosoma cruzi 13379 CL3 after 48 hrs; assay type: functional
Leishmania chagasi [25] = assay: Antileishmanial activity against Leishmania donovani chagasi LEM 379 after 48 hrs; assay type: functional
Leishmania garnhami = assay: Antileishmanial activity against Leishmania mexicana garnhami JAP78 after 48 hrs; assay type: functional
Leishmania aristidesi = assay: Antileishmanial activity against Leishmania mexicana […] 6331 after 48 hrs; assay type: functional
[26] = system: Leishmania donovani donovani; assay: Antileishmanial activity against Leishmania donovani donovani HS 70 after 48 hrs; assay type: functional
Leishmania amazonensis [27] = assay: Antileishmanial activity against Leishmania mexicana amazonensis PH8 after 48 hrs; assay type: functional
Leishmania guyanensis = assay: Antileishmanial activity against Leishmania (Viannia) guyanensis M4147 after 48 hrs; assay type: functional
Leishmania braziliensis [28] = assay: Antileishmanial activity against Leishmania (Viannia) braziliensis 2904 after 48 hrs; assay type: functional
Leishmania peruviana = assay: Antileishmanial activity against Leishmania (Viannia) peruviana PERU after 48 hrs; assay type: functional
Mus musculus = assay: Toxicity in BALB/c mouse at 800 mg/kg, ip after 72 hrs; assay type: organism-based; parameters: dose 800 mg/kg, route intraperitoneal; conditions: in vivo
Leishmania pifanoi = assay: Antileishmanial activity against Leishmania pifanoi LL1 after 48 hrs; assay type: functional
Leishmania infantum = assay: Antileishmanial activity against Leishmania donovani infantum LEM 209 after 48 hrs; assay type: functional, LEM209
[29] = system: Leishmania mexicana venezuelensis; assay: Antileishmanial activity against Leishmania mexicana venezuelensis PM H3 after 48 hrs; assay type: functional
[30] = system: Leishmania mexicana mexicana; assay: Antileishmanial activity against Leishmania mexicana mexicana BEL21 after 48 hrs; assay type: functional

Compound | IC90 (Leishmania chagasi [1]) [µg/mL] | IC90 (Trypanosoma cruzi [2]) [µg/mL] | IC90 (Leishmania amazonensis [3]) [µg/mL] | IC90 (Trypanosoma cruzi [4]) [µg/mL] | IC90 (Trypanosoma cruzi [5]) [µg/mL] | IC90 (Leishmania braziliensis [6]) [µg/mL] | IC90 (Trypanosoma cruzi [7]) [µg/mL] | IC90 (Trypanosoma cruzi [8]) [µg/mL] | IC90 (Trypanosoma cruzi [9]) [µg/mL] | IC90 (Trypanosoma cruzi [10]) [µg/mL] | IC90 (Trypanosoma cruzi [11]) [µg/mL] | IC90 (Trypanosoma cruzi [12]) [µg/mL] | IC90 (Trypanosoma cruzi [13]) [µg/mL] | IC90 (Trypanosoma cruzi [14]) [µg/mL] | IC90 (Trypanosoma cruzi [15]) [µg/mL] | IC90 (Trypanosoma cruzi [16]) [µg/mL] | IC90 (Trypanosoma cruzi [17]) [µg/mL] | IC90 (Trypanosoma cruzi [18]) [µg/mL] | IC90 (Trypanosoma cruzi [19]) [µg/mL] | IC90 (Trypanosoma cruzi [20]) [µg/mL] | other results
COc1cc(C(C)C)ccc1C | 25 (≈ 152 µM) | > 100 | 25 (≈ 152 µM) | > 100 | > 100 | 25 (≈ 152 µM) | – | – | – | – | – | – | – | – | – | – | – | – | – | – | –
COc1cc(C)c(OC)c(OC)c1C(C)C | > 100 | > 100 | > 100 | > 100 | > 100 | > 100 | – | – | – | – | – | – | – | – | – | – | – | – | – | – | –
O=C(Cn1ccnc1[N+](=O)[O-])NCc1ccccc1 [BENZNIDAZOLE] | – | – | – | 100 (≈ 384 µM) | 50 (≈ 192 µM) | – | 100 (≈ 384 µM) | 25 (≈ 96.1 µM) | 100 (≈ 384 µM) | 100 (≈ 384 µM) | 25 (≈ 96.1 µM) | > 100 | 50 (≈ 192 µM) | > 100 | 100 (≈ 384 µM) | 100 (≈ 384 µM) | 100 (≈ 384 µM) | 100 (≈ 384 µM) | 25 (≈ 96.1 µM) | 100 (≈ 384 µM) | IC90 (Trypanosoma cruzi [21]): 50 µg/mL (≈ 192 µM); IC90 (Trypanosoma cruzi [22]): 100 µg/mL (≈ 384 µM); IC90 (Trypanosoma cruzi [23]): > 100 µg/mL; IC90 (Trypanosoma cruzi [24]): > 100 µg/mL
COc1cc(C)c(O)c(OC)c1C(C)C [ESPINTANOL] | 10 (≈ 47.6 µM) | 25 (≈ 119 µM) | 25 (≈ 119 µM) | 25 (≈ 119 µM) | 25 (≈ 119 µM) | 10 (≈ 47.6 µM) | 50 (≈ 238 µM) | 25 (≈ 119 µM) | 50 (≈ 238 µM) | 50 (≈ 238 µM) | 25 (≈ 119 µM) | 50 (≈ 238 µM) | 50 (≈ 238 µM) | > 100 | 100 (≈ 476 µM) | 50 (≈ 238 µM) | 25 (≈ 119 µM) | > 100 | 50 (≈ 238 µM) | 25 (≈ 119 µM) | IC90 (Leishmania chagasi [25]): 25 µg/mL (≈ 119 µM); IC90 (Leishmania garnhami): 25 µg/mL (≈ 119 µM); IC90 (Leishmania aristidesi): 25 µg/mL (≈ 119 µM); IC90 [26]: 50 µg/mL (≈ 238 µM); IC90 (Leishmania amazonensis [27]): 25 µg/mL (≈ 119 µM); IC90 (Leishmania guyanensis): 25 µg/mL (≈ 119 µM); IC90 (Leishmania braziliensis [28]): 10 µg/mL (≈ 47.6 µM); IC90 (Leishmania peruviana): 25 µg/mL (≈ 119 µM); Activity (Mus musculus): Active; IC90 (Leishmania pifanoi): 25 µg/mL (≈ 119 µM); IC90 (Leishmania infantum): 25 µg/mL (≈ 119 µM); IC90 [29]: 50 µg/mL (≈ 238 µM); IC90 (Trypanosoma cruzi [21]): 25 µg/mL (≈ 119 µM); IC90 (Trypanosoma cruzi [22]): > 100 µg/mL; IC90 (Trypanosoma cruzi [23]): 100 µg/mL (≈ 476 µM); IC90 [30]: 25 µg/mL (≈ 119 µM); IC90 (Trypanosoma cruzi [24]): 50 µg/mL (≈ 238 µM)
N=C(N)c1ccc(OCCCCCOc2ccc(C(=N)N)cc2)cc1 [PENTAMIDINE] | – | – | – | – | – | – | – | – | – | – | – | – | – | – | – | – | – | – | – | – | IC90 (Leishmania chagasi [25]): 1 µg/mL (≈ 2.94 µM); IC90 (Leishmania garnhami): 1 µg/mL (≈ 2.94 µM); IC90 (Leishmania aristidesi): 1 µg/mL (≈ 2.94 µM); IC90 [26]: 1 µg/mL (≈ 2.94 µM); IC90 (Leishmania amazonensis [27]): 1 µg/mL (≈ 2.94 µM); IC90 (Leishmania guyanensis): 5 µg/mL (≈ 14.7 µM); IC90 (Leishmania braziliensis [28]): 1 µg/mL (≈ 2.94 µM); IC90 (Leishmania peruviana): 5 µg/mL (≈ 14.7 µM); IC90 (Leishmania pifanoi): 1 µg/mL (≈ 2.94 µM); IC90 (Leishmania infantum): 1 µg/mL (≈ 2.94 µM); IC90 [29]: 5 µg/mL (≈ 14.7 µM); IC90 [30]: 1 µg/mL (≈ 2.94 µM)
MEGLUMINE ANTIMONATE | – | – | – | – | – | – | – | – | – | – | – | – | – | – | – | – | – | – | – | – | IC90 (Leishmania chagasi [25]): > 100 µg/mL; IC90 (Leishmania aristidesi): > 100 µg/mL; IC90 [26]: > 100 µg/mL; IC90 [29]: > 100 µg/mL; IC90 [30]: > 100 µg/mL

Now from value to compound, other results behind:

IC90 (Leishmania chagasi [1]) [µg/mL] | IC90 (Trypanosoma cruzi [2]) [µg/mL] | IC90 (Leishmania amazonensis [3]) [µg/mL] | IC90 (Trypanosoma cruzi [4]) [µg/mL] | IC90 (Trypanosoma cruzi [5]) [µg/mL] | IC90 (Leishmania braziliensis [6]) [µg/mL] | IC90 (Trypanosoma cruzi [7]) [µg/mL] | IC90 (Trypanosoma cruzi [8]) [µg/mL] | IC90 (Trypanosoma cruzi [9]) [µg/mL] | IC90 (Trypanosoma cruzi [10]) [µg/mL] | IC90 (Trypanosoma cruzi [11]) [µg/mL] | IC90 (Trypanosoma cruzi [12]) [µg/mL] | IC90 (Trypanosoma cruzi [13]) [µg/mL] | IC90 (Trypanosoma cruzi [14]) [µg/mL] | IC90 (Trypanosoma cruzi [15]) [µg/mL] | IC90 (Trypanosoma cruzi [16]) [µg/mL] | IC90 (Trypanosoma cruzi [17]) [µg/mL] | IC90 (Trypanosoma cruzi [18]) [µg/mL] | IC90 (Trypanosoma cruzi [19]) [µg/mL] | IC90 (Trypanosoma cruzi [20]) [µg/mL] | Compound | other results
– | – | – | 100 (≈ 348 µM) | 25 (≈ 87 µM) | – | 25 (≈ 87 µM) | 50 (≈ 174 µM) | 100 (≈ 348 µM) | 100 (≈ 348 µM) | 25 (≈ 87 µM) | 50 (≈ 174 µM) | 50 (≈ 174 µM) | 50 (≈ 174 µM) | 50 (≈ 174 µM) | 50 (≈ 174 µM) | 25 (≈ 87 µM) | 100 (≈ 348 µM) | 25 (≈ 87 µM) | 25 (≈ 87 µM) | CC1CS(=O)(=O)CCN1/N=C/c1ccc([N+](=O)[O-])o1 (configuration not stated) [NIFURTIMOX] | IC90 (Trypanosoma cruzi [21]): 25 µg/mL (≈ 87 µM); IC90 (Trypanosoma cruzi [22]): 100 µg/mL (≈ 348 µM); IC90 (Trypanosoma cruzi [23]): > 100 µg/mL; IC90 (Trypanosoma cruzi [24]): > 100 µg/mL
> 100 | > 100 | > 100 | > 100 | > 100 | > 100 | – | – | – | – | – | – | – | – | – | – | – | – | – | – | COc1cc(C(C)C)c(OC)cc1C [THYMOQUINOL DIMETHYLETHER] | –
